Data set [1] deals with r(G4C2)^exp-containing foci. Kind of data set: RNA FISH of r(G4C2)exp-containing nuclear foci in cortex of +/+PWR500 mice. It is filed as in vivo, mouse. The following applies: +/+PWR500 mice vs vehicle. As for the experimental part: A total of 20 age- and gender-matched mice (12 +/+PWR500 [5 Male and 7 Female] and 8 WT [4 Male and 4 Female]), ranging from 18-21 weeks old were used in therapeutic efficacy studies (Table 4). Mice were treated with a single bolus injection of 33 nmol of compound 2 formulated in 1% (v/v) DMSO/99% water, administered by an intracerebroventricular injection (ICV). Three weeks post injection, mice were euthanized, and tissue was harvested for study.
Postmortem brain tissue was excised and sliced along the sagittal plane at the midline. The right hemisphere was flash frozen with Optimal Cutting Temperature (OCT) compound in 2-methylbutane in liquid nitrogen. Frozen tissue was sectioned ([…]) using a cryostat and slides were stained as previously described.^39 Briefly, frozen sections were fixed in 4% paraformaldehyde in 1×DPBS for 20 minutes then incubated in ice cold 70% ethanol at 4° C. for 30 minutes. Once fixed, slides were incubated for 10 minutes in 40% formamide in 2×SSC Buffer at room temperature. Slides were blocked in 1× Hybridization Buffer (40% formamide, 2×SSC Buffer, […] BSA, 100 mg/mL dextran sulfate, 250 μg/mL tRNA, and 2 mM vanadyl sulfate) for 30 minutes at 55° C. Slides were then incubated for 3 hours at 55° C. with 200 ng/mL of FISH probe (Table 1) in 1× Hybridization Buffer. […]

For data set [2], the system named is lymphoblastoid cell lines (LCLs). The experiment in a line: Cell viability in LCLs. The following applies: doses up to 1 μM. In kind it is cell-based, human. As for the experimental part:
(§1) Patient-derived LCLs were seeded overnight in 96-well plates (˜10^4 cells/well) and treated with compounds for 96 hours. Cell viability was measured using the CellTiter-Fluor™ Cell Viability Assay (Promega) per the manufacturer's protocol. iPSC cell viability was measured by seeding cells in Matrigel-coated 6-well plates with Basal medium (iPSC maintenance described above). After overnight incubation, the medium was replaced with fresh medium containing compounds diluted in 0.1% DMSO. Cells were treated with compound for 96 hours. Cell viability was measured using the AlamarBlue™ Cell Viability Reagent (DAL1025, Thermo Fisher Scientific) per the manufacturer's protocol. iPSN cell viability was measured by […]

Data set [3] concerns induced pluripotent stem cells (iPSCs). The experiment in a line: Cell viability in iPSCs. It is filed as cell-based, human. The following applies: doses up to 1 μM. As for the experimental part:
as §1

The subject of data set [4] is C9orf72 and transcriptome. Kind of data set: RNA-seq in c9ALS/FTD patient-derived iPSCs. It is filed as cell-based, human. As for the experimental part: Total RNA integrity was confirmed by Agilent 2100 Bioanalyzer RNA nano chip, and the quantity was measured by Qubit 2.0 Fluorometer (Invitrogen). The library preparation was performed using NEBNext Ultra II Directional RNA kit (NEB, E7760) in combination with NEBNext rRNA depletion module (NEB, E6310) and RNA fragmentation module (NEB, E6150S), following manufacturer's recommendations. Briefly, a total of 200 ng RNA was first processed with depleted of ribosomal RNA, and then randomly fragmented to achieve range between 150 to 300 nucleotides. The fragmented RNAs were random primed for the first-strand synthesis, and the second strand was synthesized with dUTPs. The strand information is thus preserved by using USER enzyme (Uracil-specific excision reagent). The cDNA was PCR amplified and pooled equimolar to load onto the NextSeq 500 v2.5 flow cell and sequenced with 2×40 bp paired-end method. The output fastq files were aligned using STAR 3^5. The read counts of specific regions were extracted using samtools.^36 The global differential gene expression analysis was performed using featureCounts and Deseq2.^37,38

In a further data set the target is r(G4C2)8. The experiment in a line: Affinity by microscale thermophoresis (MST), r(G4C2)8. In kind it is binding. As for the experimental part:
Affinity measurements were performed by MST using a Monolith NT.115 system (NanoTemper Technologies) with 5′-Cy5-labeled r(G4C2)8 (SEQ ID NO: 1), 5′-Cy5-labeled d(G4C2)8 (SEQ ID NO: 1), and 5′-Cy5-labeled base pair control r(G2C2)4GAAA(G2C2)4 (SEQ ID NO: 49). All oligos were deprotected according to the manufacturer's recommended protocol. Samples were prepared as previously described^30. Briefly, RNA or DNA (5 nM) was folded in 1×MST Buffer (8 mM Na2HPO4, 185 mM NaCl, 1 mM EDTA) by heating at 95° C. for 5 minutes and slowly cooling to room temperature. Tween-20 was then added to a final concentration of 0.05% (v/v). Serial dilutions of compound in 1×MST Buffer containing 5 nM folded nucleic acid were then carried out to yield the desired compound concentrations. Samples were incubated for 90 minutes at room temperature and then loaded into premium capillaries (NanoTemper Technologies). The following parameters were used on the Monolith NT.115 system: 10% LED, 20-80% MST power, Laser-On time=30 s, Laser-Off time=5 seconds. Fluorescence was detected using excitation wavelengths of 605-645 nm and emission wavelengths of 680-685 nm. The resulting data were analyzed by thermophoresis analysis and fit using the quadratic binding equation in the MST analysis software (NanoTemper Technologies). The dissociation constant was determined using Equation 1. […]
In general terms: In MST a laser heats a spot of the sample, and binding alters the fluorescence response.

The term Kd denotes the free concentration of one partner at which half of the binding sites on the other are occupied at equilibrium, for simple one-to-one binding. A low value points to tighter binding. Turning to `CCOC(=O)C1=C(Nc2ccccc2)S/C(=C\c2ccc(OCCOCCOCCOCCNC(=O)CCCOc3ccc4c(c3)c3cc5c(C(=O)N[C@H](C)CN(C)C)nccc5c(C)c3n4C)c(O)c2)C1=O` [ALS Compound Formula I], in data set [1], the “number of r(G4C2)^exp-containing foci in the nuclei of cortex neurons” value is “significantly reduced”. The toxicity result in data set [2] was “no significant toxicity”. In addition, the toxicity entry in data set [3] was “no significant toxicity”. The “SOCS1 regulation by RNA-seq” value in data set [4] was “not found to be significantly down-regulated”. For the same compound, in data set [4] (50 nM), the “intron 1:exon 2 ratio” value is “significantly reduced”, the off-targets transcriptome-wide result is on record as “minimal off-targets” and the “total C9orf72 read counts” value was “no effect”. On r(G4C2)8, this compound gave a Kd of 3.3 ± 1.91 µM.
